Results taken from patent publication US20220081412A1, “QUINOLINYL-PYRAZINE-CARBOXAMIDE COMPOUNDS AND USES THEREOF” (The Regents of the University of Michigan, priority 2018, published 2022).

Tested on: MIA PaCa-2 cells
Test: Bru-seq analysis for nascent RNA synthesis (log2FC of genes, GSEA gene sets)
Format: cell-based, human
[1] = downregulated gene sets, C2, 4 h, MIA PaCa-2 cells

CCN(CC)CCCC(C)Nc1cnc(C(=O)Nc2cc(C)cc3cccnc23)cn1 (stereo not drawn) [J4, 5-((5-(diethylamino)pentan-2-yl)amino)-N-(6-methylquinolin-8-yl)pyrazine-2-carboxamide]
ES: 0.576 | NES: 1.841 | synthesis of INSIG1, DHCR7, MVK and MSMO1 RNAs: upregulated | expression of GPR135, SPDYA and ABCA1 (4 h): significant decrease | Cell Cycle, Mitotic pathway (4 h of treatment): upregulated | log2FC (AC004076.2, 4 h): −0.85 | log2FC (AC005534.1, 4 h): −0.75 | log2FC (AC005614.2, 4 h): −0.94 | log2FC (AC006141.1, 4 h): −0.78 | log2FC (AC007038.2, 4 h): −1.27 | log2FC (AC007619.1, 4 h): −0.84 | log2FC (AC007620.2, 4 h): −0.89 | log2FC (AC008115.3, 4 h): 0.78 | log2FC (AC008264.2, 4 h): −0.80 | log2FC (AC008906.1, 4 h): −0.98 | log2FC (AC010615.1, 4 h): −1.64 | log2FC (AC011379.1, 4 h): 0.74 | log2FC (AC018630.1, 4 h): −0.77 | log2FC (AC026461.1, 4 h): 0.86 | log2FC (AC068473.5, 4 h): 0.77 | log2FC (AC080080.1, 4 h): 0.72 | log2FC (AC087280.2, 4 h): −0.80 | log2FC (AC091152.2, 4 h): −1.06 | log2FC (AC091940.1, 4 h): −0.79 | log2FC (AC098934.1, 4 h): 0.72 | log2FC (AC108471.2, 4 h): 0.85 | log2FC (AC110769.2, 4 h): 0.80 | log2FC (AC117382.1, 4 h): −0.85 | log2FC (AC141586.1, 4 h): 0.77 | log2FC (AC239868.4, 4 h): 1.12 | log2FC (AL050343.1, 4 h): −0.82 | log2FC (AL133338.1, 4 h): 1.02 | log2FC (AL136984.1, 4 h): −1.05 | log2FC (AL136987.1, 4 h): −0.83 | log2FC (AL139260.1, 4 h): 0.88 | log2FC (AP001107.9, 4 h): 0.81 | log2FC (AP001830.1, 4 h): 0.75 | log2FC (AP002387.1, 4 h): 0.72 | log2FC (AP002748.3, 4 h): 0.76 | log2FC (AVPI1, 4 h): 1.37 | log2FC (BHLHE40, 4 h): 1.32 | log2FC (CASC21, 4 h): −0.87 | log2FC (CCNG2, 4 h): 1.62 | log2FC (DDIT3, 4 h): 1.32 | log2FC (DDIT4, 4 h): 2.33 | log2FC (DEPDC1-AS1, 4 h): 1.05 | log2FC (DHCR7, 4 h): 2.13 | log2FC (DNAJC3-AS1, 4 h): 0.75 | log2FC (EXTL3-AS1, 4 h): 0.73 | log2FC (FDFT1, 4 h): 1.65 | log2FC (FP671120.1, 4 h): −1.32 | log2FC (HIST1H1E, 4 h): 1.24 | log2FC (HIST1H3B, 4 h): 1.26 | log2FC (HMGCS1, 4 h): 1.35 | log2FC (HSD17B7P2, 4 h): 0.76 | log2FC (IDI1, 4 h): 1.49 | log2FC (INSIG1, 4 h): 2.57 | log2FC (KRT18P31, 4 h): 0.81 | log2FC (LINC01204, 4 h): −0.84 | log2FC (LINC01337, 4 h): −1.19 | log2FC (LINC01547, 4 h): 0.93 | log2FC (LINC01930, 4 h): −1.00 | log2FC (LIPG, 4 h): 1.81 | log2FC (LSS, 4 h): 1.25 | log2FC (MSMO1, 4 h): 1.65 | log2FC (MVD, 4 h): 1.36 | log2FC (MVK, 4 h): 1.68 | log2FC (NEU1, 4 h): 2.68 | log2FC (PCYT2, 4 h): 1.70 | log2FC (RNVU1-6, 4 h): −1.50 | log2FC (SCD, 4 h): 1.95 | log2FC (SDR39U1, 4 h): 1.67 | log2FC (SH2D5, 4 h): 1.29 | log2FC (SLC2A1-AS1, 4 h): 1.02 | log2FC (SLC2A6, 4 h): 1.74 | log2FC (SYPL1P2, 4 h): 0.84 | log2FC (TBC1D17, 4 h): 1.62 | log2FC (TPRKBP2, 4 h): −1.15 | log2FC (TUBA1A, 4 h): 1.24 | log2FC (ZNF295-AS1, 4 h): 0.94 | ES BILD_CTNNBl_ONCOGENIC_SIGNATURE [1]: −0.449 | ES DACOSTA_UV_RESPONSE_VIA_ERCC3_COMMON_DN [1]: −0.439 | ES DACOSTA_UV_RESPONSE_VIA_ERCC3_TTD_DN [1]: −0.469 | ES DACOSTA_UV_RESPONSE_VIA_ERCC3_XPCS_DN [1]: −0.428 | ES DAZARD_UV_RESPONSE_CLUSTER_G6 [1]: −0.408 | ES DOANE_BREAST_CANCER_CLASSES_DN [1]: −0.578 | ES GABRIELY_MIR21_TARGETS [1]: −0.328 | ES GUENTHER_GROWTH_SPHERICAL_VS_ADHERENT_DN [1]: −0.531 | ES HAMAI_APOPTOSIS_VIA_TRAIL_UP [1]: −0.368 | ES HAN_JNK_SINGALING_DN [1]: −0.579 | ES HUTTMANN_B_CLL_POOR_SURVIVAL_DN [1]: −0.606 | ES KEGG_NEUROACTIVE_LIGAND_RECEPTOR_INTERACTION [1]: −0.624 | ES LEE_TARGETS_OF_PTCH1_AND_SUFU_UP [1]: −0.515 | ES MARTINEZ_RESPONSE_TO_TRABECTEDIN [1]: −0.482 | ES MILI_PSEUDOPODIA_HAPTOTAXIS_UP [1]: −0.322 | ES RAMALHO_STEMNESS_UP [1]: −0.331 | ES REACTOME_ASSOCIATION_OF_TRIC_CCT_WITH_TARGET_PROTEINS_DURING_BIOSYNTHESIS [1]: −0.551 | ES SENGUPTA_NASOPHARYNGEAL_CARCINOMA_UP [1]: −0.360 | ES SENGUPTA_NASOPHARYNGEAL_CARCINOMA_WITH_LMP1_UP [1]: −0.365 | ES TCGA_GLIOBLASTOMA_COPY_NUMBER_DN [1]: −0.533 | ES THUM_SYSTOLIC_HEART_FAILURE_DN [1]: −0.352 | ES TURASHVILI_BREAST_LOBULAR_CARCINOMA_VS_DUCTAL_NORMAL_DN [1]: −0.476 | ES ZHANG_TLX_TARGETS_36HR_DN [1]: −0.470 | ES ZHANG_TLX_TARGETS_DN [1]: −0.446 | ES ZHENG_FOXP3_TARGETS_IN_T_LYMPHOCYTE_DN [1]: −0.611 | NES BILD_CTNNBl_ONCOGENIC_SIGNATURE [1]: −1.841 | NES DACOSTA_UV_RESPONSE_VIA_ERCC3_COMMON_DN [1]: −2.348 | NES DACOSTA_UV_RESPONSE_VIA_ERCC3_TTD_DN [1]: −1.878 | NES DACOSTA_UV_RESPONSE_VIA_ERCC3_XPCS_DN [1]: −1.784 | NES DAZARD_UV_RESPONSE_CLUSTER_G6 [1]: −1.855 | NES DOANE_BREAST_CANCER_CLASSES_DN [1]: −1.830 | NES GABRIELY_MIR21_TARGETS [1]: −1.642 | NES GUENTHER_GROWTH_SPHERICAL_VS_ADHERENT_DN [1]: −1.656 | NES HAMAI_APOPTOSIS_VIA_TRAIL_UP [1]: −1.942 | NES HAN_JNK_SINGALING_DN [1]: −1.665 | NES HUTTMANN_B_CLL_POOR_SURVIVAL_DN [1]: −2.076 | NES KEGG_NEUROACTIVE_LIGAND_RECEPTOR_INTERACTION [1]: −1.898 | NES LEE_TARGETS_OF_PTCH1_AND_SUFU_UP [1]: −1.661 | NES MARTINEZ_RESPONSE_TO_TRABECTEDIN [1]: −1.727 | NES MILI_PSEUDOPODIA_HAPTOTAXIS_UP [1]: −1.718 | NES RAMALHO_STEMNESS_UP [1]: −1.615 | NES REACTOME_ASSOCIATION_OF_TRIC_CCT_WITH_TARGET_PROTEINS_DURING_BIOSYNTHESIS [1]: −1.804 | NES SENGUPTA_NASOPHARYNGEAL_CARCINOMA_UP [1]: −1.794 | NES SENGUPTA_NASOPHARYNGEAL_CARCINOMA_WITH_LMP1_UP [1]: −1.837 | NES TCGA_GLIOBLASTOMA_COPY_NUMBER_DN [1]: −1.738 | NES THUM_SYSTOLIC_HEART_FAILURE_DN [1]: −1.673
